Activity calls are given as the source filed them. For most assays here, no stated cut-off is given here; in the data, actives have a measured EC50 and inactives only a lower limit.
Tested on: not listed separately
Assay: Luminescence Cell-Based Dose Confirmation HTS to Identify Inhibitors of Platelet Dense Granule Release. [Related pubchem assays: 1663 (Primary HTS), 1678 (Summary of Project)]
Type: functional
With `OCCN1CCN(CC(O)COc2ccc(Cl)cc2)CC1` (centres undefined) the EC50 was > 112 µM (not active).
In the case of `Cc1ccc2c(CC(=O)N3CCN(S(=O)(=O)c4cccs4)CC3)coc2c1`, the EC50 is reported as > 112 µM (not active).
For `COc1ccc(P(=O)(COc2ccc([N+](=O)[O-])cc2)c2ccc(OC)cc2)cc1`, the EC50 was > 112 µM (not active).

Target: T1, Heat shock factor protein 1 (Mus musculus, UniProt P38532)
T1 sequence (P38532 whole entry): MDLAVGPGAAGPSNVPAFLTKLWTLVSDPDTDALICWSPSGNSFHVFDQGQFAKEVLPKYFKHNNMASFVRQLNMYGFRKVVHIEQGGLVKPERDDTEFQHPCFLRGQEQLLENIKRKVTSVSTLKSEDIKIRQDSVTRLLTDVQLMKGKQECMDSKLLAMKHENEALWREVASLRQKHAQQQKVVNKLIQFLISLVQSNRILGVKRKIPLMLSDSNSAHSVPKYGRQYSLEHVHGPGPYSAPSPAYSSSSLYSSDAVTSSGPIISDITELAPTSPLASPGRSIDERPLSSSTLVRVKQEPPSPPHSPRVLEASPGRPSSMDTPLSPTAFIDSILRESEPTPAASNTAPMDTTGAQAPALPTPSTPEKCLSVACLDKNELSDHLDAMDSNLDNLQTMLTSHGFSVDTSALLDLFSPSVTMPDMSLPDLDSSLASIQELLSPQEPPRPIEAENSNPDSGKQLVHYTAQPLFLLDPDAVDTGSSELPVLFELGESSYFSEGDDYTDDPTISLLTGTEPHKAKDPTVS
Assay: decrease of HSF1-responsive luciferase luminescence – cell-based, NIH3T3, dose retest, confirmation (AID 2382);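 further: NIH3T3 fibroblasts with HSF1-driven luciferase reporter stressed by proteasome inhibitor MG132; luminescence from HSF1-driven luciferase expression after 8 hours of MG132 stress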
Type: functional
For `COc1cccc(N2CCN(Cc3nnnn3C3CCCCC3)CC2)c1`, the EC50 was > 195 µM (not active).

Tested on: not listed separately
Assay: cells
Type: functional
With `CC(=O)c1ccc(OC(=O)c2ccc(-n3nc(C)cc3C)cc2)cc1` the IC50 was 7.6 µM (active).
In the case of `Cc1ccccc1-n1c(C)cc(/C=N/NC(=O)c2ccncc2)c1C`, the IC50 is reported as 0.18 µM (active).
For `CC1=NN(C(=O)c2csc(C)c2C)C(O)(C(F)(F)F)C1` (centres undefined), the IC50 was 42.3 µM (active).

Target: Luciferin 4-monooxygenase (Photinus pyralis, UniProt P08659)
Sequence (P08659 whole entry): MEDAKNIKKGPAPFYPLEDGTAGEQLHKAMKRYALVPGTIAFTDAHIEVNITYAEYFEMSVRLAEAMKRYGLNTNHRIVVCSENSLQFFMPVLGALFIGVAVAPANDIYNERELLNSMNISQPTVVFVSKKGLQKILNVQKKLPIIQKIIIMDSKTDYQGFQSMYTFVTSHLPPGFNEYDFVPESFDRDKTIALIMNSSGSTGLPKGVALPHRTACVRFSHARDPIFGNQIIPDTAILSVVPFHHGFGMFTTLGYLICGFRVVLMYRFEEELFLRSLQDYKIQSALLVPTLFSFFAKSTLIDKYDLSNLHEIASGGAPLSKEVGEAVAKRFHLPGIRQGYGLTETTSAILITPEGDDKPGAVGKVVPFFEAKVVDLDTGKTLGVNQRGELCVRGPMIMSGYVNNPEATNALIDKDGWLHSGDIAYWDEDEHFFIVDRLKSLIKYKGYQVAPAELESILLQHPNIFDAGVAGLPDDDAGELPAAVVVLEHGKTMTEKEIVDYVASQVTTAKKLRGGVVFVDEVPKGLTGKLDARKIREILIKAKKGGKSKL
Assay: inhibition of purified Photinus pyralis luciferase – biochemical, luminescence, dose response (AID 1891)
In the case of `OCCN1CCN(CC(O)COc2ccc(Cl)cc2)CC1` (centres undefined), the EC50 is reported as > 112 µM (not active).
In the case of `Cc1ccc2c(CC(=O)N3CCN(S(=O)(=O)c4cccs4)CC3)coc2c1`, the EC50 is reported as > 112 µM (not active).
In the case of `COc1ccc(P(=O)(COc2ccc([N+](=O)[O-])cc2)c2ccc(OC)cc2)cc1`, the EC50 is reported as > 112 µM (not active).

Target: T1, Heat shock factor protein 1
Assay: enhancement of HSF1-driven luciferase signal – cell-based, NIH3T3, luminescence, dose retest, confirmation (AID 435004);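 further: stress induced by proteasome inhibitor MG132 added 30 min after compound; luciferase reporter driven by HSF1 response element in NIH3T3 cells; actives raise luminescence as potentiators of the MG132 stress response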
Type: functional
In the case of `COc1ccc2cc(S(=O)(=O)N3CCCCC3)ccc2c1S(=O)(=O)N1CCCCC1`, the EC50 is reported as > 260 µM (inactive).
With `CCC(C)(C)c1ccc(OC(=O)c2cccnc2Cl)cc1` the EC50 was 46.8 µM (active).
In the case of `CCc1c(C)sc(NC(=O)c2ccc(Br)o2)c1C(=O)OC`, the EC50 is reported as > 260 µM (inactive).
With `CC(C)(C)NC(=O)c1cccc(NC(=O)CSc2ccc(Cl)cc2)c1` the EC50 was > 260 µM (inactive).
For `Cc1ccc(Cn2cc(S(=O)(=O)c3ccc(Cl)cc3)c(=O)c3cc(F)ccc32)cc1`, the EC50 was > 260 µM (inactive).
In the case of `COCc1cc(CN2CCCC(C(=O)Nc3ccc(-c4ccco4)cc3)C2)ccc1OC` (centres undefined), the EC50 is reported as > 260 µM (inactive).

Target: Induced myeloid leukemia cell differentiation protein Mcl-1 (Homo sapiens, UniProt Q07820)
Sequence (Q07820 whole entry): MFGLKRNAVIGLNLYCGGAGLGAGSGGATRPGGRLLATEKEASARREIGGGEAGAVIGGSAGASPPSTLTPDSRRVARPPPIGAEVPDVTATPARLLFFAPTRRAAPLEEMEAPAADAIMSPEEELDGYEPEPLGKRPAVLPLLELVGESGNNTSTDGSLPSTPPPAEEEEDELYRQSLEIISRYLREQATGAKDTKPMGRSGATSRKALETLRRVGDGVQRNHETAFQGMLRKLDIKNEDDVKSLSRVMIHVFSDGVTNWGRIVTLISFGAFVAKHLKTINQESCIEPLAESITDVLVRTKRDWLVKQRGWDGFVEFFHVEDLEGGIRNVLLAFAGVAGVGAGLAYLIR
Assay: not given
Type: functional
For `CC(C)c1ccc(Nc2nnc(SCC(=O)c3nnc(-c4ccccc4)o3)s2)cc1`, the IC50 was 2.72 µM (active).
With `CC(C(=O)Nc1cc([N+](=O)[O-])ccc1Cl)N1CCN(c2ccc(O)cc2)CC1` (centres undefined) the IC50 was 4.33 µM (not active).

Target: FAD-linked sulfhydryl oxidase ALR (Homo sapiens, UniProt P55789)
Sequence (P55789 whole entry): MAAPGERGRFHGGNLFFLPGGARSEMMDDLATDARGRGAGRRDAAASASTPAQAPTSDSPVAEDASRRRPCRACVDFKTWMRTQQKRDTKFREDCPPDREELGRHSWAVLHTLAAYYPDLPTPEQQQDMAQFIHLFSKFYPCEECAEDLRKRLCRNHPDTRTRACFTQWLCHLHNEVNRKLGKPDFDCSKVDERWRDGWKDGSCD
Assay: ALR-catalysed DTT oxidation blockers – biochemical, H2O2 detection, luminescence, cherry-pick, dose response (AID 493248)
With `Cc1occc1C(=O)N1CCCC(Nc2ccc(C(C)C)cc2)C1` (centres undefined) the AC50 was 3.97 µM (active).
For `COc1cccc(N2CCN(Cc3nnnn3C3CCCCC3)CC2)c1`, the AC50 was 5.12 µM (active).
In the case of `CN(CCCNC(=O)c1cccc(N2CCCC2=O)c1)c1ccccc1`, the AC50 is reported as 0.823 µM (active).
For `C=CCn1c(S)nnc1-c1ccccc1[N+](=O)[O-]`, the AC50 was 1.69 µM (active).
For `CN(C)c1ccc(CN(C(=O)c2ccco2)C2CCS(=O)(=O)C2)cc1` (centres undefined), the AC50 was 4.16 µM (active).
In the case of `CC(=O)NCCC(=O)Nc1sc2c(c1-c1nc3ccccc3[nH]1)CCCC2`, the AC50 is reported as 4.69 µM (active).

From ChEMBL document CHEMBL1201862, “PubChem BioAssay data set” (2004)
